Each structure is given as a SMILES string. Bounds are passed on as bounds.

Holding throughout (assay type): functional
Test [1] concerns Candida albicans. Kind of test: Synergistic antifungal activity against fluconazole-resistant Candida albicans 103 assessed as inhibition of fungal growth in presence of fluconazole by checker board microdilution assay. In general terms: Dilution methods test growth across graded concentrations, often in twofold steps.
In test [2] the test system is Candida albicans. The test is described as follows: Synergistic antifungal activity against fluconazole-resistant Candida albicans 904 assessed as inhibition of fungal growth in presence of fluconazole by checker board microdilution assay.
In test [3] the test system is Candida albicans. Kind of test: Synergistic antifungal activity against fluconazole-resistant Candida albicans 901 assessed as inhibition of fungal growth in presence of fluconazole by checker board microdilution assay.
Test [4] concerns Candida albicans. The test is described as follows: Synergistic antifungal activity against fluconazole-resistant Candida albicans 632 assessed as inhibition of fungal growth in presence of fluconazole by checker board microdilution assay.
The test system of test [5] is Candida albicans. Kind of test: Synergistic antifungal activity against fluconazole-resistant Candida albicans 311 assessed as inhibition of fungal growth in presence of fluconazole by checker board microdilution assay.
The test system of test [6] is Candida albicans. The test is described as follows: Synergistic antifungal activity against fluconazole-resistant Candida albicans 100 assessed as inhibition of fungal growth in presence of fluconazole by checker board microdilution assay.

Turning to `CCNC(=O)c1noc(-c2cc(-c3ccc(Cl)cc3)c(O)cc2O)c1-c1ccc(CN2CCOCC2)cc1`, the MIC80 worked out at 8 µg/mL in the test on Candida albicans [1]; 0.5 µg/mL in the test on Candida albicans [2]; 0.5 µg/mL in the test on Candida albicans [3]; 8 µg/mL in the test on Candida albicans [4]; 16 µg/mL in the test with Candida albicans [5]; 4 µg/mL with Candida albicans [6].

Regarding `Cc1ccc(-c2cc(-c3onc(C(=O)N4CCC4)c3-c3ccc(CN4CCCCC4)cc3)c(O)cc2O)cc1`, the MIC80 is > 64 µg/mL with Candida albicans [1]; > 64 µg/mL in the test on Candida albicans [2]; 16 µg/mL in the test on Candida albicans [3]; > 64 µg/mL in the test on Candida albicans [4]; 16 µg/mL with Candida albicans [5]; > 64 µg/mL in the test with Candida albicans [6].

Regarding `CCNC(=O)c1noc(-c2cc(-c3cccc(C(C)(C)C)c3)c(O)cc2O)c1-c1ccc(CN2CCOCC2)cc1`, the MIC80 in the test with Candida albicans [1], with Candida albicans [2], in the test on Candida albicans [3], in the test with Candida albicans [4], in the test with Candida albicans [5] and in the test with Candida albicans [6] was > 64 µg/mL each time.

In the case of `CCNC(=O)c1noc(-c2cc(-c3ccc(C)cc3)c(O)cc2O)c1-c1ccc(CNC2CCOCC2)cc1`, the MIC80 in the test on Candida albicans [1], with Candida albicans [2], in the test on Candida albicans [3], with Candida albicans [4], with Candida albicans [5] and in the test on Candida albicans [6] was > 64 µg/mL each time.

Turning to `CCNC(=O)c1noc(-c2cc(-c3cccc(OC(F)(F)F)c3)c(O)cc2O)c1-c1ccc(CN2CCOCC2)cc1`, the MIC80 in the test on Candida albicans [1], with Candida albicans [2], in the test with Candida albicans [3], in the test on Candida albicans [4], in the test on Candida albicans [5] and in the test with Candida albicans [6] was > 64 µg/mL in each case.

Take `CCN(CC)C(=O)c1noc(-c2cc(-c3ccc(C)cc3)c(O)cc2O)c1-c1ccc(CN2CCOCC2)cc1`: the MIC80 in the test on Candida albicans [1] worked out at 16 µg/mL; in the test on Candida albicans [2], 8 µg/mL; in the test with Candida albicans [3], 8 µg/mL; with Candida albicans [4] it was 8 µg/mL; in the test on Candida albicans [5], 8 µg/mL; in the test with Candida albicans [6], 8 µg/mL.

For `CCNC(=O)c1noc(-c2cc(-c3ccc(C)cc3)c(O)cc2O)c1-c1ccc(CN2CCC(N(C)C)CC2)cc1`, the MIC80 in the test with Candida albicans [1] was determined as 4 µg/mL; with Candida albicans [2], 4 µg/mL; in the test with Candida albicans [3], 16 µg/mL; with Candida albicans [4], 64 µg/mL; in the test with Candida albicans [5] it was 2 µg/mL; in the test on Candida albicans [6], 64 µg/mL.

For `Cc1ccc(-c2cc(-c3onc(C(=O)NC4COC4)c3-c3ccc(CN4CCOCC4)cc3)c(O)cc2O)cc1`, the MIC80 with Candida albicans [1], in the test with Candida albicans [2], with Candida albicans [3], in the test with Candida albicans [4], in the test with Candida albicans [5] and with Candida albicans [6] was > 64 µg/mL throughout.

`CCN(CC)C(=O)c1noc(-c2cc(-c3ccc(C)cc3)c(O)cc2O)c1-c1ccc(CN2CCCCC2)cc1`: the MIC80 in the test on Candida albicans [1] was determined as 2 µg/mL; in the test with Candida albicans [2], 8 µg/mL; in the test with Candida albicans [3], 4 µg/mL; with Candida albicans [4], 4 µg/mL; in the test on Candida albicans [5] it was 4 µg/mL; with Candida albicans [6] it was 4 µg/mL.

Turning to `CCNC(=O)c1noc(-c2cc(-c3ccc(OC)cc3)c(O)cc2O)c1-c1ccc(CN2CCOCC2)cc1`, the MIC80 with Candida albicans [1] came out at 8 µg/mL; with Candida albicans [2], 4 µg/mL; with Candida albicans [3], 8 µg/mL; in the test on Candida albicans [4] it was 16 µg/mL; in the test on Candida albicans [5], 16 µg/mL; in the test with Candida albicans [6], 8 µg/mL.

With `CCNC(=O)c1noc(-c2cc(-c3ccc(C)cc3)c(O)cc2O)c1-c1ccc(CNC2CCN(C)CC2)cc1`, the MIC80 in the test with Candida albicans [1] is 16 µg/mL; in the test with Candida albicans [2], 64 µg/mL; in the test on Candida albicans [3], 16 µg/mL; in the test with Candida albicans [4], 8 µg/mL; with Candida albicans [5], 64 µg/mL; in the test with Candida albicans [6], 64 µg/mL.

With `Cc1ccc(-c2cc(-c3onc(C(=O)NC(C)C)c3-c3ccc(CN4CCOCC4)cc3)c(O)cc2O)cc1`, the MIC80 with Candida albicans [1] came out at 64 µg/mL; in the test on Candida albicans [2], 4 µg/mL; in the test with Candida albicans [3], 8 µg/mL; with Candida albicans [4], 8 µg/mL; with Candida albicans [5], 64 µg/mL; with Candida albicans [6] it was 16 µg/mL.

In general, MIC80 refers to an inhibitory concentration at the 80% level, which refers to growth in some studies and to a panel of isolates in others.

(Values after ChEMBL document CHEMBL5154804, “Species-Selective Targeting of Fungal Hsp90: Design, Synthesis, and Evaluation of Novel 4,5-Diarylisoxazole Derivatives for the Combination Treatment of Azole-Resistant Candidiasis” (J Med Chem, 2022).)
